From publication PMC7413254 (Nature Communications, 2020)
Read-outs that look alike come from different tables or passages of the source.

Assays:
PfCRT^3D7 [1] = molecular target: T1, PfCRT^3D7 (Plasmodium falciparum, UniProt Q8IBZ9); assay: cell-based; assay type: cell-based; conditions: PfCRT3D7 oocytes, total [3H]CQ transport, normalised to the oocyte type control
Procedure, shortened: (§1)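 ND96, pH 5.5, 1.5 h, 27.5 °C; uptake direction acidic outside → oocyte cytosol, mimicking efflux from digestive vacuole. Ice-cold wash stop, 10% SDS lysis, scintillation counting. Ten oocytes/treatment, ≥4 independent experiments.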

PfCRT^Dd2 [2] = molecular target: T2, PfCRT^Dd2 (Plasmodium falciparum, UniProt Q9N623, A220S/I356T/K76T/M74I/N326S/N75E/Q271E/R371I); assay: [3H]CQ uptake into Xenopus oocytes, cis-inhibition by unlabelled solute; assay type: cell-based; conditions: PfCRTDd2 oocytes, background [3H]CQ accumulation subtracted, normalised to oocyte type control
T2 sequence (Q9N623 whole entry A220S/I356T/K76T/M74I/N326S/N75E/Q271E/R371I): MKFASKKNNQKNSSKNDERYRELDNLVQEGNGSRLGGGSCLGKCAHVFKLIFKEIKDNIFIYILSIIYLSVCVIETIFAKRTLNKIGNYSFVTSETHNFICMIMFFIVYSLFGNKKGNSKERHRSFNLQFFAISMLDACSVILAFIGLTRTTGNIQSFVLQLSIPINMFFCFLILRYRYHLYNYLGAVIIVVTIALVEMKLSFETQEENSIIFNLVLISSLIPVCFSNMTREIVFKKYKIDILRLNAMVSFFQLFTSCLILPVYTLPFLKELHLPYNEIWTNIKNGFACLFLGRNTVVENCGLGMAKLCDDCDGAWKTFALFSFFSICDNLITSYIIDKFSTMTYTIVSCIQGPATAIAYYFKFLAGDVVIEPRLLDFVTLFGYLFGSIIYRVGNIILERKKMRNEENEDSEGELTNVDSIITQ
Procedure, shortened: as §1

PfCRT^Ecu1110 [3] = molecular target: T3, PfCRT^Ecu1110 (Plasmodium falciparum, UniProt Q9N623, A220S/I356L/K76T/N326D); assay: as above; assay type: cell-based; conditions: for Uptake of [3H]CQ (% PfCRTEcu1110 control), cis-inhibition / PfCRT-mediated [3H]CQ transport, cis-inhibition (% PfCRTEcu1110 control): PfCRTEcu1110 oocytes; for Uptake of [3H]CQ (% PfCRTEcu1110 control), cis-inhibition: total [3H]CQ transport, normalised to the oocyte type control; for PfCRT-mediated [3H]CQ transport, cis-inhibition (% PfCRTEcu1110 control): background [3H]CQ accumulation subtracted, normalised to oocyte type control; for [3H]CQ transport (% PfCRTEcu1110 control), cis-inhibition, PfCRTEcu1110: PfCRT-mediated component (background subtracted), sheet title says normalised to PfCRTDd2 control, mean ± SEM, SEM
T3 sequence (Q9N623 whole entry A220S/I356L/K76T/N326D): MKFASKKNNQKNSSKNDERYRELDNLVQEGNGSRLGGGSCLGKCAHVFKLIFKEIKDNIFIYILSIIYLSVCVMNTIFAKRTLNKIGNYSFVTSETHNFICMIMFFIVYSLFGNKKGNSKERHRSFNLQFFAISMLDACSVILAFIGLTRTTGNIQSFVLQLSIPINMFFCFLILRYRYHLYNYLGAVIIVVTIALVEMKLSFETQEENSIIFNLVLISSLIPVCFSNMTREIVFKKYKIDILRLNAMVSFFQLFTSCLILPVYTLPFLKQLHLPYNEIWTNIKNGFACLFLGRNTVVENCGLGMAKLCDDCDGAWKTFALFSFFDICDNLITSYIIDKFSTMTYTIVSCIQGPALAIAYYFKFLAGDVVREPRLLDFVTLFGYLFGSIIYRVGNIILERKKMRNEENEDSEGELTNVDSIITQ
Procedure, shortened: as §1

PfCRT^Dd2 [4] = molecular target: T2, PfCRT^Dd2; assay: cell-based; assay type: cell-based; conditions: for Uptake of [3H]CQ (% PfCRTDd2 control), trans-stimulation / PfCRT-mediated [3H]CQ transport, trans-stimulation (% PfCRTDd2 control): PfCRTDd2 oocytes; for Uptake of [3H]CQ (% PfCRTDd2 control), trans-stimulation: total [3H]CQ transport, normalised to the oocyte type control; for PfCRT-mediated [3H]CQ transport, trans-stimulation (% PfCRTDd2 control): normalised to oocyte type control; for [3H]CQ transport (% PfCRTDd2 control), trans-stimulation, PfCRTDd2: PfCRT-mediated component (background subtracted), mean ± SEM, SEM
Procedure, shortened: (§2)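 Oocytes (ten per treatment, ≥4 independent frogs/days) were preloaded by injecting VF-6 in 25 nL ND96 at pH 5.0, 5.5, 6.0 or 7.0, or Na^+-free choline buffer, then uptake run 1.5 h, 27.5 °C, ND96 pH 5.5 by default. Internal concentrations assumed ~400 nL oocyte volume.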

PfCRT^Ecu1110 [5] = molecular target: T3, PfCRT^Ecu1110; assay: cell-based; assay type: cell-based; conditions: for Uptake of [3H]CQ (% PfCRTEcu1110 control), trans-stimulation / PfCRT-mediated [3H]CQ transport, trans-stimulation (% PfCRTEcu1110 control): PfCRTEcu1110 oocytes; for Uptake of [3H]CQ (% PfCRTEcu1110 control), trans-stimulation: total [3H]CQ transport, normalised to the oocyte type control; for PfCRT-mediated [3H]CQ transport, trans-stimulation (% PfCRTEcu1110 control): normalised to oocyte type control; for [3H]CQ transport (% PfCRTDd2 control), trans-stimulation, PfCRTEcu1110: PfCRT-mediated component (background subtracted), sheet title says normalised to PfCRTDd2 control, mean ± SEM, SEM
Procedure, shortened: as §2

PfNT1 = molecular target: T4, PfNT1 (Plasmodium falciparum, UniProt Q8IDM6); assay: cell-based; assay type: cell-based; conditions: PfNT1 oocytes, total [3H]CQ transport, normalised to the oocyte type control
T4 construct: expressed in transfected cells; host or cells: Xenopus laevis oocytes (stage V-VI), cRNA-injected
T4 sequence (Q8IDM6 whole entry): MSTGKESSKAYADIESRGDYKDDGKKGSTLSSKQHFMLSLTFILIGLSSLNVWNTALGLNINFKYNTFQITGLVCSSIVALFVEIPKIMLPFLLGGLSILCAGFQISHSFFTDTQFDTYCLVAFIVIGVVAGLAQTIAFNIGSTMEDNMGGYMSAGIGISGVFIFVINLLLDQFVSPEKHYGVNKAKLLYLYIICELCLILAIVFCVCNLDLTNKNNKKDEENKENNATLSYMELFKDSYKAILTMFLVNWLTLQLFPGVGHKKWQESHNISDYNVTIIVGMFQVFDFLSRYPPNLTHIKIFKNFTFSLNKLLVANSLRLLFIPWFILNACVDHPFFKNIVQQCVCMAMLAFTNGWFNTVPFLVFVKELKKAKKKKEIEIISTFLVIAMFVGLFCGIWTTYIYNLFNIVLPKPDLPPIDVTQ
Procedure, shortened: as §2

PfCRT^3D7 [6] = molecular target: T1, PfCRT^3D7; assay: cell-based; assay type: cell-based; conditions: PfCRT3D7 oocytes; for Uptake of [3H]CQ (% PfCRT3D7 control), trans-stimulation: total [3H]CQ transport, normalised to the oocyte type control; for PfCRT-mediated [3H]CQ transport, trans-stimulation (% PfCRT3D7 control): normalised to oocyte type control
Procedure, shortened: as §2

non-expressing oocytes [7] = assay: cells; assay type: cell-based, Xenopus laevis; conditions: non-expressing oocytes, total [3H]CQ transport, normalised to the oocyte type control
Procedure, shortened: as §1

non-expressing oocytes [8] = assay type: cell-based, Xenopus laevis; conditions: non-expressing oocytes, total [3H]CQ transport, normalised to the oocyte type control
Procedure, shortened: as §2

[9] = [test solute]i = 45 mM (30 mM for some solutes due to solubility)
[10] = [test solute]i = 5 mM (intracellular)
[11] = [test solute]i = 45 mM (intracellular; 30 mM for some solutes due to solubility)
[12] = [test solute]i = 5 mM (injected)

T1 sequence (Q8IBZ9 59-398): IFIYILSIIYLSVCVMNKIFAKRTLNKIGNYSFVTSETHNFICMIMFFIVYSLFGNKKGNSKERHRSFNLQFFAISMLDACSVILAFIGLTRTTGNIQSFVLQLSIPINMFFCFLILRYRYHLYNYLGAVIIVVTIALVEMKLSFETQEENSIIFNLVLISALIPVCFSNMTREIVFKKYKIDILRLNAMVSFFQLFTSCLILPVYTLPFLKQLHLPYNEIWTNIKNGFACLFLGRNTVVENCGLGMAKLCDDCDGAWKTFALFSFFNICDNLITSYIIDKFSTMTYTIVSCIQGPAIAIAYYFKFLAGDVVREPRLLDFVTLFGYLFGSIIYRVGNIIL

PENF [PEF-4]
Uptake of [3H]CQ (% PfCRT3D7 control), cis-inhibition (PfCRT^3D7 [1]; [test solute] = 0.5 mM): 100 ± 5.3 % PfCRT3D7 control
Uptake of [3H]CQ (% PfCRT3D7 control), cis-inhibition (PfCRT^3D7 [1]; [test solute] = 1 mM): 98 ± 3.5 % PfCRT3D7 control
Uptake of [3H]CQ (% PfCRT3D7 control), cis-inhibition (PfCRT^3D7 [1]; [test solute] = 2 mM): 100 ± 4.4 % PfCRT3D7 control
PfCRT-mediated [3H]CQ transport, cis-inhibition (% PfCRTDd2 control) (PfCRT^Dd2 [2]; [test solute] = 0.5 mM): 52 ± 2.0 % PfCRTDd2 control
PfCRT-mediated [3H]CQ transport, cis-inhibition (% PfCRTDd2 control) (PfCRT^Dd2 [2]; [test solute] = 1 mM): 37 ± 2.1 % PfCRTDd2 control
PfCRT-mediated [3H]CQ transport, cis-inhibition (% PfCRTDd2 control) (PfCRT^Dd2 [2]; [test solute] = 2 mM): 17 ± 0.3 % PfCRTDd2 control
Uptake of [3H]CQ (% PfCRTEcu1110 control), cis-inhibition (PfCRT^Ecu1110 [3]; [test solute] = 0.5 mM): 55 ± 4.2 % PfCRTEcu1110 control
Uptake of [3H]CQ (% PfCRTEcu1110 control), cis-inhibition (PfCRT^Ecu1110 [3]; [test solute] = 1 mM): 45 ± 4.7 % PfCRTEcu1110 control
Uptake of [3H]CQ (% PfCRTEcu1110 control), cis-inhibition (PfCRT^Ecu1110 [3]; [test solute] = 2 mM): 34 ± 3.4 % PfCRTEcu1110 control
PfCRT-mediated [3H]CQ transport, cis-inhibition (% PfCRTEcu1110 control) (PfCRT^Ecu1110 [3]; [test solute] = 0.5 mM): 49 ± 2.6 % PfCRTEcu1110 control
PfCRT-mediated [3H]CQ transport, cis-inhibition (% PfCRTEcu1110 control) (PfCRT^Ecu1110 [3]; [test solute] = 1 mM): 40 ± 3.5 % PfCRTEcu1110 control
PfCRT-mediated [3H]CQ transport, cis-inhibition (% PfCRTEcu1110 control) (PfCRT^Ecu1110 [3]; [test solute] = 2 mM): 28 ± 2.1 % PfCRTEcu1110 control
[3H]CQ transport (% PfCRTEcu1110 control), cis-inhibition, PfCRTEcu1110 (PfCRT^Ecu1110 [3]; [test solute] = 0.5 mM): 15 ± 0.1 % PfCRTEcu1110 control
[3H]CQ transport (% PfCRTEcu1110 control), cis-inhibition, PfCRTEcu1110 (PfCRT^Ecu1110 [3]; [test solute] = 1 mM): 13 ± 0.3 % PfCRTEcu1110 control
[3H]CQ transport (% PfCRTEcu1110 control), cis-inhibition, PfCRTEcu1110 (PfCRT^Ecu1110 [3]; [test solute] = 2 mM): 9.0 ± 0.01 % PfCRTEcu1110 control
Uptake of [3H]CQ (% PfCRTDd2 control), trans-stimulation (PfCRT^Dd2 [4]; [test solute]i = 5 mM): 102 ± 2.2 % PfCRTDd2 control
Uptake of [3H]CQ (% PfCRTDd2 control), trans-stimulation (PfCRT^Dd2 [4]; [9]): 99 ± 2.8 % PfCRTDd2 control
PfCRT-mediated [3H]CQ transport, trans-stimulation (% PfCRTDd2 control) (PfCRT^Dd2 [4]; [10]): 100 ± 3.2 % PfCRTDd2 control
PfCRT-mediated [3H]CQ transport, trans-stimulation (% PfCRTDd2 control) (PfCRT^Dd2 [4]; [11]): 97 ± 3.2 % PfCRTDd2 control
[3H]CQ transport (% PfCRTDd2 control), trans-stimulation, PfCRTDd2 (PfCRT^Dd2 [4]; [12]): 100 ± 3.2 % PfCRTDd2 control
[3H]CQ transport (% PfCRTDd2 control), trans-stimulation, PfCRTDd2 (PfCRT^Dd2 [4]; [9]): 97 ± 3.2 % PfCRTDd2 control
Uptake of [3H]CQ (% PfCRTEcu1110 control), trans-stimulation (PfCRT^Ecu1110 [5]; [test solute]i = 5 mM): 121 ± 3.2 % PfCRTEcu1110 control
Uptake of [3H]CQ (% PfCRTEcu1110 control), trans-stimulation (PfCRT^Ecu1110 [5]; [9]): 132 ± 3.7 % PfCRTEcu1110 control
PfCRT-mediated [3H]CQ transport, trans-stimulation (% PfCRTEcu1110 control) (PfCRT^Ecu1110 [5]; [10]): 118 ± 1.1 % PfCRTEcu1110 control
PfCRT-mediated [3H]CQ transport, trans-stimulation (% PfCRTEcu1110 control) (PfCRT^Ecu1110 [5]; [11]): 128 ± 2.0 % PfCRTEcu1110 control
[3H]CQ transport (% PfCRTDd2 control), trans-stimulation, PfCRTEcu1110 (PfCRT^Ecu1110 [5]; [12]): 36 ± 1.6 % PfCRTEcu1110 control
[3H]CQ transport (% PfCRTDd2 control), trans-stimulation, PfCRTEcu1110 (PfCRT^Ecu1110 [5]; [9]): 39 ± 1.3 % PfCRTEcu1110 control
Uptake of [3H]CQ (% PfNT1 control), trans-stimulation (PfNT1; [test solute]i = 5 mM): 101 ± 2.2 % PfNT1 control
Uptake of [3H]CQ (% PfNT1 control), trans-stimulation (PfNT1; [9]): 99 ± 2.7 % PfNT1 control
Uptake of [3H]CQ (% PfCRT3D7 control), trans-stimulation (PfCRT^3D7 [6]; [test solute]i = 5 mM): 135 ± 6.8 % PfCRT3D7 control
Uptake of [3H]CQ (% PfCRT3D7 control), trans-stimulation (PfCRT^3D7 [6]; [9]): 151 ± 8.0 % PfCRT3D7 control
PfCRT-mediated [3H]CQ transport, trans-stimulation (% PfCRT3D7 control) (PfCRT^3D7 [6]; [10]): 128 ± 3.6 % PfCRT3D7 control
PfCRT-mediated [3H]CQ transport, trans-stimulation (% PfCRT3D7 control) (PfCRT^3D7 [6]; [11]): 145 ± 4.7 % PfCRT3D7 control
Uptake of [3H]CQ (% non-expressing oocyte control), cis-inhibition (non-expressing oocytes [7]; [test solute] = 0.5 mM): 99 ± 5.8 % non-expressing oocyte control
Uptake of [3H]CQ (% non-expressing oocyte control), cis-inhibition (non-expressing oocytes [7]; [test solute] = 1 mM): 98 ± 4.6 % non-expressing oocyte control
Uptake of [3H]CQ (% non-expressing oocyte control), cis-inhibition (non-expressing oocytes [7]; [test solute] = 2 mM): 99 ± 4.4 % non-expressing oocyte control
Uptake of [3H]CQ (% non-expressing oocyte control), trans-stimulation (non-expressing oocytes [8]; [test solute]i = 5 mM): 97 ± 3.5 % non-expressing oocyte control
Uptake of [3H]CQ (% non-expressing oocyte control), trans-stimulation (non-expressing oocytes [8]; [9]): 100 ± 3.2 % non-expressing oocyte control
